From patent publication US20260042764A1, “COMPOSITIONS AND METHODS FOR INHIBITION OF KRAS” (TheRas, Inc., priority 2022, published 2026)

What was measured:
[1] = system: SW620 cells (KRAS G12V); test: Cell-based pERK HTRF assay in SW620 cell (Biological Example 4); details: Homo sapiens, SW-620, SW620 (KRAS G12V) cells, pERK HTRF
How it was run: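 SW620 (KRAS G12V) cells seeded at 3×10^4/well in RPMI, 10% FBS, then treated next day for 4 h with a 9-point half-log series from 1 μM top (0.25% DMSO). Lysates analyzed for pERK by HTRF (Eu cryptate/d2 antibodies, 4–24 h at room temperature), excitation 320 nm, emission 615 nm.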

[2] = system: GP2d cells (KRAS G12D); test: Cell-based pERK HTRF assay in GP2d cell (Biological Example 2); details: GP2d, GP2d (KRAS G12D) cells, pERK HTRF
How it was run: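 Cells grown in DMEM with 10% FBS were exposed to compound for 60 min at 0.25% DMSO, using a 9-point half-log series starting at 1 μM or 100 nM. Lysates were then mixed with d2 and Eu cryptate antibodies for 4–24 h at room temperature, and pERK was read by HTRF.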

[3] = target: T1, Avi-KRAS G12V (1-169) GppNHp/RAF1 RBD-3xFLAG (52-151) (Homo sapiens, UniProt P01116, G12V); test: Raf1-KRAS G12V-GppNHP disruption HTRF assay (Biological Example 1); assay type: binding
T1 construct: Avi-KRAS G12V (1-169)
T1 sequence (P01116 1-169 isoform P01116-2 G12V): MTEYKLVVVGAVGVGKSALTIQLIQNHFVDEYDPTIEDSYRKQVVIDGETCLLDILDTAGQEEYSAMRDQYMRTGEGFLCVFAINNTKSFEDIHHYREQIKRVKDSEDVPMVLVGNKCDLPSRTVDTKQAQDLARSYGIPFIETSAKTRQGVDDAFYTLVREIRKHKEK
How it was run: (§1)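 Protein mix, 1 h RT, 700 rpm; reagent mix, 1 h RT, 700 rpm; HTRF read. Buffer Tris pH 7.5/NaCl/MgCl2/BSA/Tween, 10% DMSO. Output % activity, DMSO = 100%.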

[4] = target: T2, Avi-KRAS WT (1-169) GppNHp/RAF1 RBD-3xFLAG (52-151) (Homo sapiens, UniProt P01116); test: Raf1-KRAS WT-GppNHP disruption HTRF assay (Biological Example 1); assay type: binding
T2 construct: Avi-KRAS WT (1-169)
T2 sequence (P01116 1-169 isoform P01116-2): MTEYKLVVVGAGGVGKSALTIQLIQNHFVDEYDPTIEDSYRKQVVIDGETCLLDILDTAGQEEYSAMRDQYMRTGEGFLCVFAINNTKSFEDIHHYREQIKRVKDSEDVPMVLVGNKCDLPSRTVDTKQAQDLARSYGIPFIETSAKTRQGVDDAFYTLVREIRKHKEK
How it was run: as §1

[5] = target: T3, Avi-KRAS G12R (1-169) GppNHp/RAF1 RBD-3xFLAG (52-151) (Homo sapiens, UniProt P01116, G12R); test: Raf1-KRAS G12R-GppNHP disruption HTRF assay (Biological Example 1); assay type: binding
T3 construct: Avi-KRAS G12R (1-169)
T3 sequence (P01116 1-169 isoform P01116-2 G12R): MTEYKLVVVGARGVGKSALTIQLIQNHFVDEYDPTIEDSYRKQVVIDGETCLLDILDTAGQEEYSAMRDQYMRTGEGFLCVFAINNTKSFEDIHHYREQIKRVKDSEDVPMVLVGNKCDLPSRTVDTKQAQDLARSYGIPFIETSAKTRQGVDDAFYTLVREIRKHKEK
How it was run: as §1

[6] = target: T4, Avi-KRAS G12D (1-169) GppNHp/RAF1 RBD-3xFLAG (52-151) (Homo sapiens, UniProt P01116, G12D); test: Raf1-KRAS G12D-GppNHP disruption HTRF assay (Biological Example 1); assay type: binding
T4 construct: Avi-KRAS G12D (1-169)
T4 sequence (P01116 1-169 isoform P01116-2 G12D): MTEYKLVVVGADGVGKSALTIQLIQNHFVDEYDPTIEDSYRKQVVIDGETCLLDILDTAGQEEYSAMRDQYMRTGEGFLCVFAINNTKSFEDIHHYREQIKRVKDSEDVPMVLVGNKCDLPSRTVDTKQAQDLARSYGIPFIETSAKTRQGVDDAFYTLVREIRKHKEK
How it was run: as §1

[7] = KRAS G12V, GppNHp-loaded, class symbols
[8] = KRAS WT, GppNHp-loaded, class symbols
[9] = KRAS G12R, GppNHp-loaded, class symbols
[10] = KRAS G12D, GppNHp-loaded, class symbols
[11] = KRAS G12V, GppNHp-loaded, Table 11
[12] = KRAS WT, GppNHp-loaded, Table 11
[13] = KRAS G12R, GppNHp-loaded, Table 11
[14] = KRAS G12D, GppNHp-loaded, Table 11

Compound | IC50 ([1]; class symbols) [nM] | IC50 ([2]; class symbols) [nM] | IC50 [3, 7] [nM] | IC50 [4, 8] [nM] | IC50 [5, 9] [nM] | IC50 [6, 10] [nM] | IC50 [1] [nM] | IC50 [2] [nM] | IC50 [3, 11] [nM] | IC50 [4, 12] [nM] | IC50 [5, 13] [nM] | IC50 [6, 14] [nM] | IC50 ([3]; KRAS G12V-GppNHp/RAF1 RBD HTRF) [nM] | IC50 ([4]; KRAS WT-GppNHp/RAF1 RBD HTRF) [nM] | IC50 ([5]; KRAS G12R-GppNHp/RAF1 RBD HTRF) [nM] | IC50 ([6]; KRAS G12D-GppNHp/RAF1 RBD HTRF) [nM]
COC1CN(C(=O)N2CC[C@H](N(c3nc(OC[C@@]45CCCN4C[C@H](F)C5)nc4c(F)c(-c5ccc(F)c6sc(N)c(C#N)c56)c(C(F)(F)F)cc34)C3CC3)C2)C1 (atropisomer, axis not shown) [Compound 801] | < 100 | < 100 | 100 to 1000 | 100 to 1000 | 100 to 1000 | < 100 | – | – | – | – | – | – | – | – | – | –
CN1CCN(c2nc(OC[C@@]34CCCN3C[C@H](F)C4)nc3c(F)c(-c4ccc(F)c5sc(N)c(C#N)c45)c(C(F)(F)F)cc23)CCC1=O [Compound 271] | – | – | – | – | – | – | < 100 | < 100 | 100 to 1000 | 100 to 1000 | 100 to 1000 | 100 to 1000 | – | – | – | –
CCN(c1nc(OC[C@@]23CCCN2C[C@H](F)C3)nc2c(F)c(-c3ccc(F)c4sc(N)c(C#N)c34)c(C(F)(F)F)cc12)[C@H]1CC(=O)N(CC(F)F)C1 [Compound 549] | – | – | – | – | – | – | < 100 | < 100 | – | – | – | – | 100 to 1000 | 100 to 1000 | 100 to 1000 | < 100
C[C@H]1[C@@H](N(C)c2nc(OC[C@@]34CCCN3C[C@H](F)C4)nc3c(F)c(-c4ccc(F)c5sc(N)c(C#N)c45)c(C(F)(F)F)cc23)CCN1C(=O)CC#N [Compound 252] | – | – | – | – | – | – | 100 to 1000 | 100 to 1000 | 1000 to 10000 | 1000 to 10000 | 1000 to 10000 | 1000 to 10000 | – | – | – | –
CC#CC(=O)N1CC[C@@H](N(C)c2nc(OC[C@@]34CCCN3C[C@H](F)C4)nc3c(F)c(-c4ccc(F)c5sc(N)c(C#N)c45)c(C(F)(F)F)cc23)[C@H]1C [Compound 668] | < 100 | < 100 | 100 to 1000 | 100 to 1000 | 100 to 1000 | 100 to 1000 | – | – | – | – | – | – | – | – | – | –
CN1CC[C@H](N(C)c2nc(OC[C@@]34CCCN3C[C@H](F)C4)nc3c(F)c(-c4ccc(F)c5sc(N)c(C#N)c45)c(C(F)(F)F)cc23)CC1=O [Compound 281] | – | – | – | – | – | – | < 100 | < 100 | – | – | – | – | 1000 to 10000 | 100 to 1000 | 100 to 1000 | 100 to 1000
CCC(=O)N1CC[C@@H](N(CC)c2nc(OC[C@@]34CCCN3C[C@H](F)C4)nc3c(F)c(-c4ccc(F)c5sc(N)c(C#N)c45)c(C(F)(F)F)cc23)[C@H]1C [Compound 405] | – | – | – | – | – | – | < 100 | < 100 | – | – | – | – | 100 to 1000 | 100 to 1000 | 100 to 1000 | 100 to 1000
CCN(c1nc(OC[C@@]23CCCN2C[C@H](F)C3)nc2c(F)c(-c3ccc(F)c4sc(N)c(C#N)c34)c(C(F)(F)F)cc12)[C@H]1CCN(C(=O)OC2CCOCC2)C1 (atropisomer, axis not shown) [Compound 684] | < 100 | < 100 | < 100 | < 100 | < 100 | < 100 | – | – | – | – | – | – | – | – | – | –
CCN(c1nc(OC[C@@]23CCCN2C[C@H](F)C3)nc2c(F)c(-c3ccc(F)c4sc(N)c(C#N)c34)c(C(F)(F)F)cc12)[C@H]1CCN(C(=O)[C@H](C)CF)C1 (atropisomer, axis not shown) [Compound 790] | < 100 | < 100 | 100 to 1000 | < 100 | < 100 | < 100 | – | – | – | – | – | – | – | – | – | –
CCN(c1nc(OC[C@@]23CCCN2C[C@H](F)C3)nc2c(F)c(-c3ccc(F)c4sc(N)c(C#N)c34)c(C(F)(F)F)cc12)[C@@H]1CCN(C(C)=O)[C@H]1C [Compound 414] | – | – | – | – | – | – | 100 to 1000 | < 100 | – | – | – | – | 100 to 1000 | 100 to 1000 | 100 to 1000 | 100 to 1000
N#Cc1c(N)sc2c(F)ccc(-c3c(C(F)(F)F)cc4c(N5C[C@H]6C[C@@H](O)[C@@H]5C6)nc(OC[C@@]56CCCN5C[C@H](F)C6)nc4c3F)c12 [Compound 362] | – | – | – | – | – | – | 100 to 1000 | < 100 | – | – | – | – | 1000 to 10000 | 100 to 1000 | 100 to 1000 | 100 to 1000
CCN(c1nc(OC[C@@]23CCCN2C[C@H](F)C3)nc2c(F)c(-c3ccc(F)c4sc(N)c(C#N)c34)c(C(F)(F)F)cc12)[C@H]1CCN(C(=O)N(C)C)[C@H]1C (atropisomer, axis not shown) [Compound 798] | 100 to 1000 | 100 to 1000 | 1000 to 10000 | 1000 to 10000 | 1000 to 10000 | 100 to 1000 | – | – | – | – | – | – | – | – | – | –
CCN(c1nc(OC[C@@]23CCCN2C[C@H](F)C3)nc2c(F)c(-c3ccc(F)c4sc(N)c(C#N)c34)c(C(F)(F)F)cc12)[C@H]1CCN(C(=O)OCC2COC2)C1 (atropisomer, axis not shown) [Compound 639] | < 100 | < 100 | < 100 | < 100 | < 100 | < 100 | – | – | – | – | – | – | – | – | – | –
CCN(c1nc(OC[C@@]23CCCN2C[C@H](F)C3)nc2c(F)c(-c3ccc(F)c4sc(N)c(C#N)c34)c(C(F)(F)F)cc12)[C@H]1CCN(C(=O)N2CC(F)C2)[C@@H]1C (atropisomer, axis not shown) [Compound 780] | < 100 | < 100 | < 100 | < 100 | < 100 | < 100 | – | – | – | – | – | – | – | – | – | –
CCN(c1nc(OC[C@@]23CCCN2C[C@H](F)C3)nc2c(F)c(-c3ccc(F)c4sc(N)c(C#N)c34)c(C(F)(F)F)cc12)[C@H]1CC(=O)N(CCF)C1 (atropisomer, axis not shown) [Compound 635] | < 100 | < 100 | 100 to 1000 | < 100 | < 100 | < 100 | – | – | – | – | – | – | – | – | – | –
CC(=O)N1CCC[C@H](N(C)c2nc(OC[C@@]34CCCN3C[C@H](F)C4)nc3c(F)c(-c4ccc(F)c5sc(N)c(C#N)c45)c(C(F)(F)F)cc23)C1 [Compound 289] | – | – | – | – | – | – | < 100 | < 100 | – | – | – | – | 100 to 1000 | 100 to 1000 | 100 to 1000 | 100 to 1000
CCN(c1nc(OC[C@@]23CCCN2C[C@H](F)C3)nc2c(F)c(-c3ccc(F)c4sc(N)c(C#N)c34)c(C(F)(F)F)cc12)[C@H]1CCN(C(=O)[C@H](C)OC)C1 (atropisomer, axis not shown) [Compound 571] | < 100 | < 100 | < 100 | < 100 | < 100 | < 100 | – | – | – | – | – | – | – | – | – | –
[2H][C@]1(N(CC)c2nc(OC[C@@]34CCCN3C[C@H](F)C4)nc3c(F)c(-c4ccc(F)c5sc(N)c(C#N)c45)c(C(F)(F)F)cc23)CCN(C(=O)OC)C1 (atropisomer, axis not shown) [Compound 800] | < 100 | < 100 | < 100 | < 100 | < 100 | < 100 | – | – | – | – | – | – | – | – | – | –
CCN(c1nc(OC[C@@]23CCCN2C[C@H](F)C3)nc2c(F)c(-c3ccc(F)c4sc(N)c(C#N)c34)c(C(F)(F)F)cc12)[C@H]1CCN(C(=O)C2CCN(C(C)=O)CC2)C1 (atropisomer, axis not shown) [Compound 575] | < 100 | < 100 | < 100 | < 100 | < 100 | < 100 | – | – | – | – | – | – | – | – | – | –
CC(=O)N1CC[C@@H](N(C)c2nc(OC[C@@]34CCCN3C[C@H](F)C4)nc3c(F)c(-c4ccc(F)c5sc(N)c(C#N)c45)c(C(F)(F)F)cc23)C1 [Compound 112] | – | – | – | – | – | – | < 100 | < 100 | 100 to 1000 | 100 to 1000 | 100 to 1000 | 100 to 1000 | – | – | – | –
N#Cc1c(N)sc2c(F)ccc(-c3c(C(F)(F)F)cc4c(N5CC6CC(O)C(C6)C5)nc(OC[C@@]56CCCN5C[C@H](F)C6)nc4c3F)c12 (stereo partly drawn) [Compound 306] | – | – | – | – | – | – | 100 to 1000 | 100 to 1000 | – | – | – | – | > 10000 | 1000 to 10000 | 1000 to 10000 | 1000 to 10000
CC[C@H](C)C(=O)N1CC[C@H](N(CC)c2nc(OC[C@@]34CCCN3C[C@H](F)C4)nc3c(F)c(-c4ccc(F)c5sc(N)c(C#N)c45)c(C(F)(F)F)cc23)C1 (atropisomer, axis not shown) [Compound 576] | < 100 | < 100 | 100 to 1000 | < 100 | < 100 | < 100 | – | – | – | – | – | – | – | – | – | –
